Reference: US6156493A, “Modified-affinity streptavidin” (priority 1997, dated 2000)
pEC50, pKd: −log10 of the molar value. Like-named read-outs stand apart in the source and are kept apart here.

Columns and labels:
[1] = molecular target: T1, Streptomyces avidinii core streptavidin (residues 13-139), wild type (WT) (Streptomyces avidinii, UniProt P22629); test: ELISA concentration-dependent binding to biotin/BSA or iminobiotin/BSA; conditions: ligand iminobiotin/BSA, EC50 is protein concentration, read-out: Absolute EC50 (converted)
T1 construct: core streptavidin, defined as residues 13-139 of the naturally occurring protein; made in house
T1 sequence (P22629 37-163): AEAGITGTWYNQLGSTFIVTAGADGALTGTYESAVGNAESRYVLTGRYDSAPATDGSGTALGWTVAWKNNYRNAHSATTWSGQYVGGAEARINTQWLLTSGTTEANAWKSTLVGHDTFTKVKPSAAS
Description: ELISA Assays. […] 2-Iminobiotin conjugated to bovine serum albumin (iminobiotin/BSA) was synthesized by reacting a twenty-fold molar excess of 2-iminobiotin N-hydroxysuccinimide ester (sigma) with 100 mg BSA in 100 mM NaHCO3, pH 8.3 for 12 hr at 4° C. with end-over-end stirring, followed by dialysis and gel filtration (G-25, Pharmacia) to separate iminobiotin/BSA from unreacted 2-iminobiotin. […] The next day the microwell plates were incubated with 200 μl per well of blocking buffer at pH 8.0 or pH 10.0 (50 mM sodium phosphate, pH 8.0 or 50 mM Na2 CO3, pH 10.0/100 mM NaCl/0.5% (w/v) BSA/0.05% (v/v) Tween-20) for at least 2 hr at room temperature and then incubated in ten-fold serial dilutions of 100 μg/ml WT streptavidin or mutants (100 μl/well) for 2 hr at room temperature, rinsed with blocking buffer at pH 8.0 or pH 10.0 (200 μl/well), and incubated for 1 hr at room temperature in 2×10^4 dilution of primary antistreptavidin antibodies (Sigma) in pH 8.0 or pH 10.0 blocking buffer (100 μl/well). […]
where a, b, c, and d are the adjustable fitting parameters; x=streptavidin concentration (μg/ml); y=absorbance at 405 nm. […]

[2] = molecular target: Streptomyces avidinii streptavidin, wild type (WT); test: Known Ka of ligand-WT streptavidin partners used for the analysis; assay type: binding; conditions: pH 10.0; estimated from experimentally-determined value for iminobiotin/avidin
Text: Streptavidin, a protein produced by Streptomyces avidinii, forms a very strong and specific non-covalent complex with the water soluble vitamin biotin. […] See, Green, Adv. Prot. Chem. 29: 85-143 (1975).
Order of magnitude determinations of ΔKa for the mutants were estimated from the EC50, given the known Ka 's of some of these ligand-protein partners. […] These numbers are further supported by the independently determined biotin-binding affinities of the W79A and W120A mutants, which agree well with the ELISA estimates.

[3] = molecular target: T2, Streptomyces avidinii core streptavidin variant W120A (Streptomyces avidinii, UniProt P22629, W144A); test: Affinity of W120A for 2-iminobiotin; assay type: binding
T2 construct: core streptavidin, defined as residues 13-139 of the naturally occurring protein; made in house
T2 sequence (P22629 37-163 W144A): as the sequence (P22629 37-163) above, with W108A counted along it

[4] = molecular target: T3, Streptomyces avidinii core streptavidin variant W120F (Streptomyces avidinii, UniProt P22629, W144F); test: ELISA concentration-dependent binding to iminobiotin/BSA; conditions: Absolute EC50, ligand iminobiotin/BSA
T3 construct: core streptavidin, defined as residues 13-139 of the naturally occurring protein; made in house
T3 sequence (P22629 37-163 W144F): as the sequence (P22629 37-163) above, with W108F counted along it
Description: (§1) ELISA Assays. […] 2-Iminobiotin conjugated to bovine serum albumin (iminobiotin/BSA) was synthesized by reacting a twenty-fold molar excess of 2-iminobiotin N-hydroxysuccinimide ester (sigma) with 100 mg BSA in 100 mM NaHCO3, pH 8.3 for 12 hr at 4° C. with end-over-end stirring, followed by dialysis and gel filtration (G-25, Pharmacia) to separate iminobiotin/BSA from unreacted 2-iminobiotin. […] The next day the microwell plates were incubated with 200 μl per well of blocking buffer at pH 8.0 or pH 10.0 (50 mM sodium phosphate, pH 8.0 or 50 mM Na2 CO3, pH 10.0/100 mM NaCl/0.5% (w/v) BSA/0.05% (v/v) Tween-20) for at least 2 hr at room temperature and then incubated in ten-fold serial dilutions of 100 μg/ml WT streptavidin or mutants (100 μl/well) for 2 hr at room temperature, rinsed with blocking buffer at pH 8.0 or pH 10.0 (200 μl/well), and incubated for 1 hr at room temperature in 2×10^4 dilution of primary antistreptavidin antibodies (Sigma) in pH 8.0 or pH 10.0 blocking buffer (100 μl/well). The plates were rinsed three times with 200 μl per well blocking buffer at the assay pH, incubated with secondary anti-IgG/alkaline phosphatase conjugate (Sigma) for 1 hr at room temperature, rinsed three times with blocking buffer, and assayed for alkaline phosphatase activity at pH 10.0. Every plate assayed had triplicates for each protein concentration. The data were processed on Mathcad (Mathworks) to determine the equivalent bulk concentration at 50% saturation of binding (EC50) values using a published 4-parameter nonlinear fitting algorithm shown below (Jin et al., J. Mol. Biol. 226: 851-865 (1992)):
(§2) y=a+(d-a)/[1+exp (b(c-x))]
(§3) where a, b, c, and d are the adjustable fitting parameters; x=streptavidin concentration (μg/ml); y=absorbance at 405 nm. Absolute EC50 in μg ml^-1 are given by the value of the parameter c for the best fit of the fitting function to the binding isotherm. Relative EC50 values reported in Table I are EC50 (mutant)/EC50 (WT streptavidin).

[5] = molecular target: Streptomyces avidinii core streptavidin Trp→Ala mutants (WxA: W79A, W108A, W120A); test: as above; conditions: ligand iminobiotin/BSA; pH 8/10; lower bound
Description: as §1, §2, §3

[6] = molecular target: T4, Streptomyces avidinii core streptavidin variant W79F (Streptomyces avidinii, UniProt P22629, W103F); test: as above; conditions: for pEC50: Absolute EC50, ligand iminobiotin/BSA
T4 construct: core streptavidin, defined as residues 13-139 of the naturally occurring protein; made in house
T4 sequence (P22629 37-163 W103F): as the sequence (P22629 37-163) above, with W67F counted along it
Description: as §1, §2, §3

[7] = molecular target: T5, Streptomyces avidinii core streptavidin variant W108F (Streptomyces avidinii, UniProt P22629, W132F); test: as above; conditions: for pEC50: Absolute EC50, ligand iminobiotin/BSA
T5 construct: core streptavidin, defined as residues 13-139 of the naturally occurring protein; made in house
T5 sequence (P22629 37-163 W132F): as the sequence (P22629 37-163) above, with W96F counted along it
Description: as §1, §2, §3

[8] = molecular target: T6, Streptomyces avidinii core streptavidin, wild type (WT) (Streptomyces avidinii, UniProt P22629); test: Equilibrium binding of 3H-biotin (ultrafiltration spin-column assay); conditions: tight-binding limit; 0.2 nM total biotin; isotherm identical to W120F
T6 construct: core streptavidin, defined as residues 13-139 of the naturally occurring protein; made in house
T6 sequence (P22629 37-163): as the sequence (P22629 37-163) above
Description: (§4) The free ligand was then separated from the protein-bound ligand by either Microcon-30 or Centriprep-30 centrigual ultrafiltration devices (Amicon, Inc.). Typically, 0.1-1 ml of the free ligand solution or the protein-ligand mixture was added to 18 ml liquid scintillation cocktail (Ecolume, ICN Biomedicals, Inc., Costa Mesa, Calif.) and assayed on a liquid scintillation counter (Beckman Instruments, Inc., Fullerton, Calif.). The Ka was determined from a nonlinear curve fit of the fraction of protein-bound ligand versus the free protein concentration.
(§5) This assay provides a useful estimate of the Ka when the affinities lie between 10^6 -10^9.

[9] = molecular target: T3, Streptomyces avidinii core streptavidin variant W120F; conditions: tight-binding limit; 0.2 nM total biotin
Description: as §4, §5

[10] = molecular target: T3, Streptomyces avidinii core streptavidin variant W120F; test: Equilibrium biotin-binding enthalpy and heat capacity (isothermal titrating calorimetry)
Description: (§6) The equilbrium binding enthalpies, ΔH°, and the heat capacities, ΔCp°, have also been […] with the streptavidin mutants (Table II). Heat capacities were determined as generally described in Murphy et al., Proteins: Structure, Function and Genetics 15:113-120 (1993), incorporated herein by reference.
(§7) The determination of ΔGr .noteq. by transition state analysis and the independent estimation of ΔG^0 from affinity measurements allows the drawing of free energy profiles for WT streptavidin and the Trp to Phe mutants. Similarly, the enthalpic energy profiles can be drawn from the equilibrium biotin-binding enthalpy (ΔH^0), independently determined by isothermal titrating calorimetry measurements, and ΔHr .noteq. available from transition state analysis of the temperature-dependent protein-ligand dissociation kinetics. The virtue of this analysis is that is allows the free energy barriers responsible for the off-rates of the different mutants to be delineated in terms of alterations in the transition state and/or the biotin-bound ground state, and further partitions these free energy changes into enthalpic and entropic components. Upon comparison with the results for WT streptavidin, the thermodynamic effects of mutating specific residues can then be mapped, providing considerable insight into the structure and energetics of the transition state.

[11] = molecular target: T7, Streptomyces avidinii core streptavidin variant W79A (Streptomyces avidinii, UniProt P22629, W103A); test: as above
T7 construct: core streptavidin, defined as residues 13-139 of the naturally occurring protein; made in house
T7 sequence (P22629 37-163 W103A): as the sequence (P22629 37-163) above, with W67A counted along it
Description: as §6, §7

[12] = molecular target: T4, Streptomyces avidinii core streptavidin variant W79F; test: as above
Description: as §6, §7

[13] = molecular target: T5, Streptomyces avidinii core streptavidin variant W108F; test: as above
Description: as §6, §7

[14] = molecular target: T2, Streptomyces avidinii core streptavidin variant W120A; test: as above
Description: as §6, §7

[15] = molecular target: T6, Streptomyces avidinii core streptavidin, wild type (WT); test: as above
Description: as §6, §7

[16] = molecular target: T3, Streptomyces avidinii core streptavidin variant W120F; test: Streptavidin-biotin dissociation rate (3H biotin, cold biotin chase, ultrafiltration) and transition state analysis; assay type: binding
Description: (§8) Fifty μl of the filtrate were mixed with 10 ml scintillation cocktail in triplicate and assayed for radioactivity in a liquid scintillation counter (LS-7000, Beckman Instruments, Fullerton, Calif.). […] Standard deviations were determined based on three independent measurements.

[17] = molecular target: T4, Streptomyces avidinii core streptavidin variant W79F; test: as above; assay type: binding
Description: as §8

[18] = molecular target: T5, Streptomyces avidinii core streptavidin variant W108F; test: as above; assay type: binding
Description: as §8

[19] = molecular target: T6, Streptomyces avidinii core streptavidin, wild type (WT); test: as above; assay type: binding
Description: as §8

[20] = biotin-bound ground state relative to WT
[21] = equilibrium biotin binding enthalpy
[22] = heat capacity of biotin binding
[23] = activation barrier of biotin dissociation
[24] = activation enthalpy of biotin dissociation, transition state analysis

In the case of `N=C1N[C@H]2[C@H](CS[C@H]2CCCCC(=O)O)N1` [2-iminobiotin], the EC50 ([1]; pH 8) was 0.189 µM, the EC50 ([1]; pH 10) was 0.214 µM and the “Ka for iminobiotin/WT streptavidin” value [2] was 10^8 M^-1. The “affinity for 2-iminobiotin” value [3] was < 10^3 M^-1, the pEC50 ([4]; pH 8) was 4.37 and the pEC50 ([4]; pH 10) was 4.78. The “Absolute EC50” value [5] was no less than 100 µg/mL, the pKd [6] was 2.03 and the pEC50 ([6]; pH 8) was 4.47. It also gave a pEC50 ([6]; pH 10) of 6.24, a pKd [7] of 2.03 and a pEC50 ([7]; pH 8) of 4.40. It also gave a pEC50 ([7]; pH 10) of 6.31.

`O=C(O)CCCC[C@@H]1SC[C@@H]2NC(=O)N[C@@H]21` [biotin] was tested, and the “Ka (biotin)” value [8] was > 10^9, the “Ka (biotin)” value [9] was > 10^9 and the “TΔΔS° (entropy term)” value ([10]; biotin binding, relative to WT) was “+2.4 kcal mol^-1”. The “ΔΔH°” value ([10]; biotin binding, relative to WT) was “+5.1 kcal mol^-1”, the “ΔΔG°” value [10, 20] was “+2.7 kcal mol^-1” and the “ΔH°” value [10, 21] was -19.4 kcal/mol. The “ΔCp°” value [10, 22] was -303 cal/molK, the “ΔH°” value [11, 21] was -18.5 kcal/mol and the “ΔCp°” value [11, 22] was -357 cal/molK. The “TΔΔS°” value ([12]; biotin binding, relative to WT) was -2.4 kcal/mol, the “ΔΔH°” value ([12]; biotin binding, relative to WT) was -1.5 kcal/mol and the “ΔΔG°” value [12, 20] was “+0.9 kcal mol^-1”. The “ΔH°” value [12, 21] was -25.9 kcal/mol, the “ΔCp°” value [12, 22] was -266 cal/molK and the “ΔH°” value [13, 21] was -23.5 kcal/mol. For the same molecule, the “ΔCp°” value [13, 22] was -386 cal/molK, the “ΔH°” value [14, 21] was -12.8 kcal/mol and the “ΔCp°” value [14, 22] was -272 cal/molK. For the same molecule, the “ΔH°” value [15, 21] was -24.5 kcal/mol, the “ΔCp°” value [15, 22] was -345 cal/molK and the “TΔSr≠” value ([16]; T = 298K, biotin dissociation) was 6.6 ± 1.0 kal mol^-1. For the same molecule, the “ΔGr≠” value [16, 23] was 21.9 ± 1.4 kal mol^-1, the “ΔΔGr≠ = ΔGr≠(mutant) - ΔGr≠(WT)” value ([16]; biotin dissociation) was -2.5 kal mol^-1 and the “TΔSr≠” value ([17]; T = 298K, biotin dissociation) was 11.6 ± 0.6 kal mol^-1. For the same molecule, the “ΔGr≠” value [17, 23] was 23.3 ± 0.8 kal mol^-1, the “ΔHr≠” value [17, 24] was 34.9 ± 0.6 kcal/mol and the “ΔΔGr≠ = ΔGr≠(mutant) - ΔGr≠(WT)” value ([17]; biotin dissociation) was -1.1 kal mol^-1. For the same molecule, the “TΔSr≠” value ([18]; T = 298K, biotin dissociation) was 13.8 ± 0.9 kal mol^-1, the “ΔGr≠” value [18, 23] was 22.7 ± 1.3 kal mol^-1 and the “ΔHr≠” value [18, 24] was 36.5 ± 0.9 kcal/mol. For the same molecule, the “ΔΔGr≠ = ΔGr≠(mutant) - ΔGr≠(WT)” value ([18]; biotin dissociation) was -1.7 kal mol^-1, the “ΔGr≠ (activation barrier for biotin dissociation)” value [19] was 24.4 kcal/mol and the “TΔSr≠” value ([19]; T = 298K, biotin dissociation) was 7.6 ± 2.1 kal mol^-1. For the same molecule, the “ΔGr≠” value [19, 23] was 24.4 ± 2.4 kal mol^-1, the “t1/2 of biotin complex” value ([19]; biotin dissociation) was 35 h and the “ΔΔGr≠ = ΔGr≠(mutant) - ΔGr≠(WT)” value ([19]; biotin dissociation) was 0 kal mol^-1.
